Data reported in patent US20250289789A1, “REVERSIBLE LYSINE COVALENT MODIFIERS OF CDK2 AND USES THEREOF” (Terremoto Biosciences, Inc., priority 2023, published 2025).
Converted amounts (≈) assume the structure as drawn. “Also recorded” adds a separate entry of the source. Where two headings read alike, the source gives them in different places.

Key:
[1] = Solubility determination in PBS pH 7.4; type: physicochemical; settings: aqueous buffer, kinetic from dmso stock; PBS pH 7.4, 2 hours, 25° C.; the listed prodrug
Experimental: Stock solutions (10 mM DMSO, 30 μL) of each sample were placed into 96-well plate, along with 970 μL of PBS pH 7.4 were added into each vial of the cap-less solubility sample plate. The assay was performed in duplicate. A stir stick was added to each well and sealed using a molded PTFE/Silicone plug. Then the Solubility Sample plate was transferred to an Eppendorf Thermomixer Comfort plate shaker and shaken at 1100 RPM for 2 hours at 25° C. After completion the plugs and stir sticks were removed and the samples were transferred into a filter plate and filtered using a vacuum manifold. 5 μL aliquots of filtrate were taken and diluted with 5 μL DMSO and 490 μL of a 1:1 v/v mixture of H2O and acetonitrile. 200 μL of diluent was transferred to a new 96-well plate for LC-MS/MS analysis. The solution was analyzed and quantified against a standard of known concentration in DMSO using LC coupled with Mass spectral peak for identification and quantitation.

[2] = test system: Phospho-Rb Ser807/811 in OVCAR3 cells; assay: OVCAR3 Phospho-Rb Ser807/811 HTRF assay; type: cell-based; settings: Homo sapiens, OVCAR-3, 1 h, read-out: pRb-OVCAR3 IC50
Experimental: Cells were trypsinized and resuspended in 1 mM hydroxyurea (Sigma; H8627), 90% RPMI and 10% fetal bovine serum. […] Dose response curve normalized to DMSO control was plotted using four-parameter logistic model for IC50 calculation.

[3] = target: T1, CDK1-NanoLuc fusion with CCNB1 in 293T or 293 cells (Homo sapiens, UniProt P06493); assay: NanoBRET Target Engagement (TE) Intracellular Kinase Assay, CDK1/CCNB1; type: cell-based; settings: NanoBRET TE intracellular kinase assay, 2-hour incubation, read-out: NanoBRET-CDK1/B1 IC50
T1 construct: host or cells: 293T (ATCC CRL-3216) or 293 (ATCC CRL-1573)
T1 sequence (P06493 whole entry, the tested form may be a part): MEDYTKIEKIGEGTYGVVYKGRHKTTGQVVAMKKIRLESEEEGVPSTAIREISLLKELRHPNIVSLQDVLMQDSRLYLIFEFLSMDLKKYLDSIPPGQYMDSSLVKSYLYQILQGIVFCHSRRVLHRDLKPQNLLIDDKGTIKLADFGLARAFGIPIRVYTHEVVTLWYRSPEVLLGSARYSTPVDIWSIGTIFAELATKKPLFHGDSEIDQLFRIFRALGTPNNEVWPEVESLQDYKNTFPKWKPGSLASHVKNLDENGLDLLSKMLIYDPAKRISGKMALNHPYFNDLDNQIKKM
T1 sequence (P14635 whole entry partner, the tested form may be a part): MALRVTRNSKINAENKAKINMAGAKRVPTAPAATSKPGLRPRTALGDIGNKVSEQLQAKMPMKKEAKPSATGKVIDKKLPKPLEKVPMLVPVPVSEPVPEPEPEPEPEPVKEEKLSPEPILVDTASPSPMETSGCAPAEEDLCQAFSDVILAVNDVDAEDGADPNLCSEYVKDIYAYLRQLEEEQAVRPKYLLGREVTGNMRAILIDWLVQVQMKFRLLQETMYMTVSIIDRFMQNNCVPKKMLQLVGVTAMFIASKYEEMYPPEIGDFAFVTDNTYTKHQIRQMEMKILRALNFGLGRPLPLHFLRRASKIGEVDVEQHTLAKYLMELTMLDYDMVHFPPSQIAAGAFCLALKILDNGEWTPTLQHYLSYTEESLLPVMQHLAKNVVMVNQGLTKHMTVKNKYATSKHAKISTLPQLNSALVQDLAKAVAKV
Method in brief: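 IC50 derived by four-parameter logistic fit of DMSO-normalized acceptor/donor (610/450 nm) BRET ratio. Compound and Tracer K-10 were applied together for 2 h at 37° C to 293 or 293T cells transfected 24 h earlier with CDK1-NanoLuc fusion and cyclin B1.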

[4] = target: T2, CDK2-NanoLuc fusion with CCNE1 in 293T or 293 cells (Homo sapiens, UniProt P24941); assay: NanoBRET Target Engagement (TE) Intracellular Kinase Assay, CDK2/CCNE1; type: cell-based; settings: 2-hour incubation
T2 construct: host or cells: 293T (ATCC CRL-3216) or 293 (ATCC CRL-1573)

[5] = target: pCDK2-CCNE1 proteins (Homo sapiens, UniProt P24941); assay: Identification of covalent binding by intact mass spectrometry, with and without competitor PF-06873600; settings: for Observed mass value of the covalent complex between compound and CDK2 protein: intact mass spectrometry after borohydride reduction, unmodified CDK2 34096-34097 Da; for Covalent complex formation with CDK2 protein (intact mass spectra after sodium borohydride reduction) / Binding pocket by competition: complex formation in presence of molar excess PF-06873600: pCDK2-CCNE1 1 μM, compound 1.5 μM; for Covalent complex formation with CDK2 protein (intact mass spectra after sodium borohydride reduction): 1 hour at room temperature or 37° C., no competitor; for Binding pocket by competition: complex formation in presence of molar excess PF-06873600: competitor PF-06873600 20 μM
Experimental: pCDK2-CCNE1 proteins (1 μM) were treated with a compound (1.5 μM) from Table 4 for 1 hour at room temperature or 37° C., with and without competitor molecule PF-06873600 (20 μM final concentration) as a specificity control. As used herein, the competitor molecule is
As used herein, the competitor molecule is 6-(difluoromethyl)-8-((1R,2R)-2-hydroxy-2-methylcyclopentyl)-2-((1-(methylsulfonyl)piperidin-4-yl)amino)pyrido[2,3-d]pyrimidin-7(8H)-one (PF-06873600). Reversible imines were captured by reductive amination with the addition of 5 mM sodium borohydride at room temperature for 5 min. Reduction reactions were quenched by diluting the sample in equal volume of 1% trifluoroacetic acid (v/v) in acetonitrile, then analyzed by LC-MS. Deconvoluted monoisotopic intensities of unmodified and compound-modified mass peaks were compared.
FIGS. 1A to 1P provide intact mass spectra for pCDK2-CCNE1 proteins after incubation with compounds of the present disclosure and subsequent sodium borohydride reduction. […] Further, FIGS. 1A to 1P each provide intact mass spectra following the incubation of pCDK2-CCNE1 proteins with a compound of the present disclosure both in the absence of a competitor molecule (i.e., PF-06873600, a molecule known to bind to and inhibit the function of CDK2); and in the presence of a significant stoichiometric excess of a competitor molecule PF-06873600.
FIGS. 2A to 2N provide intact mass spectra for pCDK2-CCNE1 proteins after incubation with compounds of the present disclosure and subsequent sodium borohydride reduction.

[6] = target: T3, CDK4-NanoLuc fusion with CCND1 in 293T or 293 cells (Homo sapiens, UniProt P11802); assay: NanoBRET Target Engagement (TE) Intracellular Kinase Assay, CDK4/CCND1; type: cell-based; settings: NanoBRET TE intracellular kinase assay, 2-hour incubation, read-out: NanoBRET-CDK4/D1 IC50
T3 construct: host or cells: 293T (ATCC CRL-3216) or 293 (ATCC CRL-1573)
T3 sequence (P11802 whole entry, the tested form may be a part): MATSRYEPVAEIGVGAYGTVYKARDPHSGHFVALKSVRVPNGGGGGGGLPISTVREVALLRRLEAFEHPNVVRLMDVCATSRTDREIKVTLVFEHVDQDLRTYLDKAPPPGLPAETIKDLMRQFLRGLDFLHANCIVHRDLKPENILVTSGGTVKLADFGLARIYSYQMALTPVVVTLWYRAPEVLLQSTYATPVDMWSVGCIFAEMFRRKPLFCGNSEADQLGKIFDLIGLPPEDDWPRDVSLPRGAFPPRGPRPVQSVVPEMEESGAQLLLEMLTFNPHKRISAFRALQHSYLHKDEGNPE
T3 sequence (P24385 whole entry partner, the tested form may be a part): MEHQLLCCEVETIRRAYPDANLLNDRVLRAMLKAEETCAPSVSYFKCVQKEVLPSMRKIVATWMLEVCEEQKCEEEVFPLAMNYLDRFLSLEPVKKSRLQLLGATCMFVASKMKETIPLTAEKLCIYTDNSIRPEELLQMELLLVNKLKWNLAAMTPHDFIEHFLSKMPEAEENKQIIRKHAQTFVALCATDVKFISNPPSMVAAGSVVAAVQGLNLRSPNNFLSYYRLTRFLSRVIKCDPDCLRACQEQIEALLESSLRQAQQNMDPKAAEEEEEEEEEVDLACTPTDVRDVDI

[7] = OVCAR3 cells, Phospho-Rb Ser807/811 HTRF, 1 hour incubation
[8] = NanoBRET-CDK2/E1 IC50, NanoBRET TE intracellular kinase assay
[9] = NanoBRET TE intracellular kinase assay, read-out: NanoBRET-CDK2/E1 IC50

SMILES	solubility at 2 h [1] [µM]	IC50 [2, 7] [nM]	IC50 [3] [nM]	IC50 [4, 8] [nM]	Observed mass value of the covalent complex between compound and CDK2 protein [5] [Da]	IC50 [6] [µM]	IC50 [4, 9] [nM]	Covalent complex formation with CDK2 protein (intact mass spectra after sodium borohydride reduction) [5]	Binding pocket by competition: complex formation in presence of molar excess PF-06873600 [5]	IC50 [2] [nM]	Covalent complex formation with CDK2 protein (intact mass spectra after sodium borohydride reduction) ([5]; trifluoroacetic acid)
COc1cc(O)c(/C=N/C(C)C)c2c1CC(C(=O)Nc1cc([C@H]3CC[C@@H](OC(=O)NC(C)(C)C)C3)[nH]n1)C2 (single isomer, unassigned) [Compound 283a, (1R,3S)-3-(3-((*)-5-hydroxy-4-((E)-(isopropylimino)methyl)-7-methoxy-2,3-dihydro-1H-indene-2-carboxamido)-1H-pyrazol-5-yl)cyclopentyl tert-butylcarbamate]	149 (≈ 78.3 µg/mL)	–	–	–	–	–	–	–	–	–	–
COc1cc(O)c(/C=N/C(C)C)c2c1CC(C(=O)Nc1cc([C@H]3CC[C@@H](OC(=O)N(C)N(C)C)C3)n[nH]1)C2 (single isomer, unassigned) [Compound 284a, (1R,3S)-3-(5-((*)-5-hydroxy-4-((E)-(isopropylimino)methyl)-7-methoxy-2,3-dihydro-1H-indene-2-carboxamido)-1H-pyrazol-3-yl)cyclopentyl 1,2,2-trimethylhydrazine-1-carboxylate]	253 (≈ 133 µg/mL)	–	–	–	–	–	–	–	–	–	–
CC(C)NC(=O)O[C@@H]1CC[C@H](c2cc(NC(=O)c3cc(-c4c(F)ccc(O)c4C=O)nn3C)n[nH]2)C1 [Compound 45, (1R,3S)-3-(3-(3-(6-fluoro-2-formyl-3-hydroxyphenyl)-1-methyl-1H-pyrazole-5-carboxamido)-1H-pyrazol-5-yl)cyclopentyl isopropylcarbamate]	–	114	6.81	2.8	34579	1.58	–	–	–	–	–
CC(=O)Nc1cccc(OCC(=O)Nc2cc([C@H]3CC[C@@H](OC(=O)NC(C)C)C3)[nH]n2)c1C=O [Compound 46, (1R,3S)-3-{5-[2-(3-acetamido-2-formylphenoxy)acetamido]-2H-pyrazol-3-yl}cyclopentyl N-isopropylcarbamate]	–	2410	692	–	–	4.17	20.6	resulted in covalent complex formation	–	–	–
CC(C)NC(=O)O[C@@H]1CC[C@H](c2cc(NC(=O)COc3cccc(NS(C)(=O)=O)c3C=O)n[nH]2)C1 [Compound 49, (1R,3S)-3-{5-[2-(2-formyl-3-methanesulfonamidophenoxy)acetamido]-2H-pyrazol-3-yl}cyclopentyl N-isopropyl carbamate]	–	161	70.2	–	34588	> 10	24.5	–	–	–	–
CNC(=O)O[C@@H]1CC[C@H](c2cc(NC(=O)c3cc(-c4cccc(O)c4C=O)nn3C)n[nH]2)C1 [Compound 50, (1R,3S)-3-{5-[5-(2-formyl-3-hydroxyphenyl)-2-methylpyrazole-3-amido]-2H-pyrazol-3-yl}cyclopentyl N-methylcarbamate; trifluoroacetic acid]	–	382	49.7	–	–	> 10	8.63	resulted in covalent complex formation	–	–	–
C#Cc1cccc(OCC(=O)Nc2cc([C@H]3CC[C@@H](OC(=O)NC(C)C)C3)[nH]n2)c1C=O [Compound 51, (1R,3S)-3-(3-(2-(3-ethynyl-2-formylphenoxy)acetamido)-1H-pyrazol-5-yl)cyclopentyl isopropylcarbamate]	–	1150	354	–	34519	4.1	7.58	formed a covalent complex with CDK2 protein	bound to the same binding pocket of CDK2 as the competitor molecule PF-06873600	–	–
C#Cc1cccc(-c2cc(C(=O)Nc3cc([C@H]4CC[C@@H](OC(=O)NC(C)C)C4)[nH]n3)n(C)n2)c1C=O [Compound 52, (1R,3S)-3-(3-(3-(3-ethynyl-2-formylphenyl)-1-methyl-1H-pyrazole-5-carboxamido)-1H-pyrazol-5-yl)cyclopentyl isopropylcarbamate]	–	2430	383	–	–	0.543	21.7	resulted in covalent complex formation	–	–	–
COc1cc(O)c(C=O)c(OCC(=O)Nc2cc([C@H]3CC[C@@H](OC(=O)NC(C)C)C3)[nH]n2)c1 [Compound 64, (1R,3S)-3-{5-[2-(2-formyl-3-hydroxy-5-methoxyphenoxy)acetamido]-2H-pyrazol-3-yl}cyclopentyl N-isopropylcarbamate]	–	33.2	9.52	–	34539	> 6.43	2.76	resulted in covalent complex formation	–	–	–
CC(C)NC(=O)O[C@@H]1CC[C@H](c2cc(NC(=O)c3ccnc(Oc4cccc(O)c4C=O)c3)n[nH]2)C1 [Compound 69, (1R,3S)-3-{5-[2-(2-formyl-3-hydroxyphenoxy)pyridine-4-amido]-2H-pyrazol-3-yl}cyclopentyl N-isopropylcarbamate; trifluoroacetic acid]	–	–	79	1.92	34574	1.95	–	–	bound to the same binding pocket of CDK2 as the competitor molecule PF-06873600	730	formed a covalent complex with CDK2 protein; also recorded: resulted in covalent complex formation
CC1(NC(=O)O[C@@H]2CC[C@H](c3cc(NC(=O)COc4cccc(O)c4C=O)n[nH]3)C2)CC1 [Compound 82, (1R,3S)-3-{5-[2-(2-formyl-3-hydroxyphenoxy)acetamido]-2H-pyrazol-3-yl}cyclopentyl N-(1-methylcyclopropyl)carbamate; trifluoroacetic acid]	–	43.2	11.3	–	34523	4.42	3.32	resulted in covalent complex formation	–	–	–
COc1cc(OC)c(C=O)c(OCC(=O)Nc2cc([C@H]3CC[C@@H](OC(=O)NC(C)C)C3)[nH]n2)c1 [Compound 103, (1R,3S)-3-{5-[2-(2-formyl-3,5-dimethoxyphenoxy)acetamido]-2H-pyrazol-3-yl}cyclopentyl N-isopropylcarbamate]	–	31.7	5.66	–	34554	3.79	1.43	resulted in covalent complex formation	–	–	–
